Measurements published in patent US8865657B2, “Compositions and methods for inactivating or suppressing inflammatory cells” (New York University, priority 2005, dated 2014).
Read-outs that look alike come from different tables or passages of the source.

Key:
Kupffer cells [1] = assay: Zymosan-induced respiratory burst (ROS) in Kupffer cells, luminol- or lucigenin-enhanced chemiluminescence
Description: Liver cell isolation. Liver cells were isolated from female Sprague Dawley rats (230-250 g). Livers were perfused with collagenase as described by Neufeld (Neufeld DS (1997) Isolation of rat liver hepatocytes. Methods in Molecular Biology, Vol 75: Basic Cell Culture Protocols 75: 145-151). Subsequently, liver cells were purified by a combined differential and Percoll gradient centrifugation using a Sorvall HS4 swinging bucket rotor (Smedsrod B, Pertoft H (1985) Preparation of pure hepatocytes and reticuloendothelial cells in high yield from a single rat liver by means of Percoll centrifugation and selective adherence. J.Leukocyte Biol 38: 213-230). After filtration through a 100-μm mesh polypropylene filter (Spectra/Mesh; Spectrum, Laguna Hills, Calif.), the cell suspension was centrifuged for 5 minutes at 50 g resulting in a hepatocyte-enriched pellet and a nonparenchymal cell-enriched supernatant. The nonparenchymal cell-containing supernatant was saved. The pellet was resuspended in ice-cold phosphate-buffered saline (PBS) and mixed in an equal volume of PBS-buffered isotonic Percoll. The gradient was centrifuged for 10 minutes at 50 g. The pellet was resuspended in PBS, centrifuged again, and the final pellet was resuspended in RPMI 1640 medium containing 10% FCS. The nonparenchymal cell-enriched supernatants were centrifuged for 15 minutes at 900 g. The pellet was resuspended in ice-cold PBS, layered over a 2-cushion Percoll gradient (Smedsrod B, Pertoft H (1985) Preparation of pure hepatocytes and reticuloendothelial cells in high yield from a single rat liver by means of Percoll centrifugation and selective adherence. J.Leukocyte Biol 38: 213-230) and centrifuged for 30 minutes at 900 g. The intermediate zone, containing mostly liver endothelial cells, and the bottom cushion, containing mostly Kupffer cells, were saved, mixed with PBS, and centrifuged for 15 minutes at 900 g. The pellet was resuspended in PBS with 1% FCS and the cells further separated into various fractions by centrifugal counterflow elutriation (Knook D L, Sleyster E C (1976) Separation of Kupffer and endothelial cells of the rat liver by centrifugal elutriation. Exp Cell Res 99: 444-449) using the Beckman Coulter JE-5.0 elutriator rotor supplied with a Sanderson chamber (Beckman Coulter, Palo Alto, Calif. USA). The cell suspension was introduced into the elutriator at a flow rate of 12 ml/min, and the elutriator speed set to 3250 rpm. Endothelial cells were obtained at a 32 ml/min flow rate, whereas Kupffer cells were collected at 70 ml/min. The cells were centrifuged at 200 g and resuspended in RPMI-1640 medium containing 10% fetal calf serum. The cell purity and viability were above 95% as determined by peroxidase stain and trypan blue exclusion.
Cell culture. Kupffer cells were seeded into 96-well microtiter plates (0.25×10^6 cells/well) or 24-well plates (1.0×10^6 cells/well). Endothelial cells were plated on 24-well plates (1.5×10^6 cells/well), which had been previously coated with type I collagen (Sigma, St. Louis, Mo.). […] All types of cells were cultivated in RPMI 1640 medium supplemented with 10% fetal calf serum (FCS), 25 mM HEPES, and antibiotics (100 U/ml penicillin G and 100 μg/ml streptomycin sulfate) at 37° C. in 5% CO2. Nonadherent cells were removed after 1 h by replacing medium, and the cells were cultured in the same medium for 18 h and then in RPMI-1640 without FCS for 6 h.
Cell treatment. To study the effect of CSP on cell signaling, the cells were incubated with different concentration of CSP for 0-90 min at 37° C. in 5% CO2. Before use, CSP was dialyzed extensively with 150 mM NaCl, 10 mM HEPES, pH 7.4 and diluted in culture medium.

Kupffer cells [2] = assay: cAMP radioimmunoassay, intracellular cAMP in Kupffer cells; type: cell-based, rat
Description: Liver cell isolation. […] The nonparenchymal cell-containing supernatant was saved.
Cell culture. […] HepG2 cells were used on day 3 after plating.
Cell treatment. […] Role of calcium and cyclic AMP. […] J Immunol 174: 2981-2989). […] IBMX was dissolved in dimethyl sulphoxide (DMSO).
cAMP radioimmunoassay. For cAMP determination, liver cell cultures were incubated in culture medium without FCS at 37° C. for 0-90 min. The cultures were then placed on ice, and the reaction was stopped by aspiration of the incubation medium followed by the addition of 1 ml of ice cold 65% (vol/vol) ethanol. The cells were scraped into Eppendorf tubes and centrifuged at 10000 g for 10 min at 4° C. The supernatants were dried in SC110 Speedvac Concentrator (Savant, Farmingdale, N.Y.) at room temperature, and the dried extracts were dissolved in assay buffer for cAMP determination with cAMP [^125I] Direct Biotrak Assay from Amersham Biosciences (Piscataway, N.J.), according to the instructions of the manufacturer. Samples were analyzed with a Beckman LS 6000 scintillation counter. The cAMP level in each sample was normalized to the protein concentration and expressed as fmol/μg of protein. Ethanol-precipitated cell pellets were diluted with 0.15 M NaOH and the protein concentration was measured with the Micro BCA Protein Assay Kit (Pierce Chemical Co., Rockford, Ill.) according to manufacturer's instructions.

Question: How did the “effect on zymosan-induced ROS formation” value (Kupffer cells [1]; 3 mM, pretreated 40 minutes, luminol-enhanced chemiluminescence) turn out when `CCCC(=O)Nc1ncnc2c1ncn2[C@@H]1O[C@@H]2COP(=O)(O)O[C@H]2[C@H]1O` [6-MB-cAMP, N6-monobutyryladenosine-3′,5′-cAMP] was run?
Answer: The value was “had no effect”.

Question: How did the “effect on zymosan-induced ROS formation” value (Kupffer cells [1]) turn out when `CO[C@@H]1[C@@H]2OP(=O)(O)OC[C@H]2O[C@H]1n1c(Sc2ccc(Cl)cc2)nc2c(N)ncnc21` [8-CPT-2-Me-cAMP, 8-[4-chlorophenylthio]-2′-O-methyladenosine-3′,5′-cAMP] was run?
Answer: Its value is “inhibited”.

Question: `[O-][Cl+2]([O-])O` [Chlorate, sodium chlorate, reference compound] was tested. Which inhibition at 20000 µM (Kupffer cells [2]; Rattus norvegicus, read-out: inhibition of the CSP-induced generation of cAMP) did it give?
Answer: The inhibition at 20000 µM was 20%.

Question: How did the “effect on the CSP-mediated inhibition of the respiratory burst” value (Kupffer cells [1]) turn out when `Cl.Cl.O=S(=O)(NCCNCC=Cc1ccc(Br)cc1)c1cccc2cnccc12` [H-89, N-[2-(p-Bromocinnamylamino)ethyl]-5-isoquinolinesulfonamide dihydrochloride] was run?
Answer: The value was “failed to prevent”.

Question: For `CC(C)Cn1c(=O)n(C)c(=O)c2[nH]cnc21` [IBMX, 3-isobutyl-1 methylxanthine, reference compound], which “effect on the CSP-induced generation of cAMP” value (Kupffer cells [2]; added 10 min before 50 nM CSP (30 min), RAP 500 nM) is on record?
Answer: Its value is “did not reduce”.

Question: What about the inhibition at 1000 µM (Kupffer cells [1]; Rattus norvegicus, read-out: inhibition of the zymosan-induced respiratory burst) of the same molecule?
Answer: The inhibition at 1000 µM was 67%.

Question: With `C[C@]12N[C@H](Cc3ccccc31)c1ccccc12` [MK-801] as the molecule, how does the “effect on the CSP-mediated inhibition of the respiratory burst” value (Kupffer cells [1]) read?
Answer: Its value is “had no effect”.

Question: `Nc1ncnc2c1ncn2C1CCCO1` (stereo not drawn) [SQ 22,536, 9-(Tetrahydro-2-furanyl)-9H-purin-6-amine] was tested. Which “effect on the inhibition of the zymosan-induced respiratory burst by sporozoites” value (Kupffer cells [1]; 100 μM SQ 22,536 with P. yoelii sporozoites) did it give?
Answer: The value was “abrogated the inhibitory effect”.

Question: How did the “inhibition of the zymosan-induced respiratory burst” value (Kupffer cells [1]; 1 mM IBMX or 1 mM db-cAMP, luminol-enhanced chemiluminescence) turn out when `CCCC(=O)Nc1ncnc2c1ncn2[C@@H]1O[C@@H]2COP(=O)(O)O[C@H]2[C@H]1OC(=O)CCC` [db-cAMP, dibutyryl cAMP] was run?
Answer: The value was 22%.
